Reference: US6603046B1, “Bis-aromatic a,β-unsaturated ketones” (Lica Pharmaceuticals A/S, priority 1992, dated 2003)
Values after ≈ are worked out from the molar mass of the structure shown.

Legend:
[1] = test system: Staphylococcus aureus ATCC 25923; test: MIC, macrodilution (Example 17); type: cell-based; conditions: ATCC25923
[2] = test system: human monocytes/macrophages; test: Electron microscopy of human monocytes/macrophages with and without ingested L. major (Example 12); conditions: for ultrastructure of macrophage: macrophage alone
[3] = test system: L. major; test: In vivo growth of L. major in BALB/c mice (Example 8); parameters: key to amastigotes findings on the impression smear, Spleen / amastigotes findings on the impression smear, Liver: −: no parasite amastigotes detected in 5 fields of microscopical vision; +: parasite amastigotes from 5 fields of microscopical vision < 100; ++: parasite amastigotes from 5 fields of microscopical vision = 100-500; +++: parasite amastigotes from 5 fields of microscopical vision = 500-1000; conditions: for parasitic load of the footpad, 3H-thymidine uptake (mean) / parasitic load of the liver, 3H-thymidine uptake (mean): 42 days
Method: Mice. BALB/c female mice aged eight weeks old were used throughout. Parasite. The maintenance, cultivation, and isolation of the promastigote-stage of the parasite L. major (WHO reference vaccine strain) have been described in detail in Example 4. […] The lesions that developed in the footpad were measured with a dial-calliper and expressed as footpad thickness increase (in mm). The footpad thickness of mice was measured before infection and every 3 days after 7 days of infection. From 7 days of infection, mice received licochalcone A injections i.p. or intralesionally once a day. After 42 days of licochalcone A injection, some of the mice were killed and the footpads, spleens and livers removed. The parasite loads in the footpads and livers were estimated by a modification of the method described by Liew et al. 1990. […] Incubation was carried out at 28° C. for 3 days and then pulsed with 1 μCi of ^3H-thymidine. Cultures were harvested 18 h later on filter paper by a cell harvester (Skatron, Lierbyen, Norway), extensively washed with distilled water and counted in a scintillation counter (Minaxi Ti-Carb 4000, United Technologies, Packard, USA). The results were expressed as cpm. The footpads, spleens and livers impression was also estimated. Drugs. One mg of licochalcone A was dissolved in 20 μl of 99% (v/v) ethanol, and then 980 μl of medium 199 was added an the resulting mixture was stored at −20° C. before use.

[4] = test system: Gram positive cocci; test: MIC, macrodilution (Example 17), text summary; type: cell-based
[5] = test system: L. major in human PBM-derived macrophages; test: L. major in human PBM-derived macrophages, microscopic counting (Example 7); type: cell-based, Leishmania major
[6] = Toxicity study in rats, peroral (Example 21); type: in vivo
Method: Study in rats. To 4 rats was administered one dose of 1000 mg per kg body weight perorally.

[7] = test system: P. falciparum; test: P. falciparum growth in vitro (Table 14.1, strain not stated); type: cell-based; conditions: Plasmodium falciparum, read-out: inhibition of malaria parasites (middle figure) (converted)
In short: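 Parasitized erythrocytes (~1% parasitemia) in RPMI with graded compound concentrations, cultured 48 h. 3H-hypoxanthine added for the final 24 h. Growth measured as 3H-hypoxanthine incorporation into parasite DNA by liquid scintillation.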

[8] = 3 days after infection, 0.5 μg/ml
[9] = 3 days after infection, 1 μg/ml
[10] = 6 days after infection, 0.5 μg/ml
[11] = 6 days after infection, 1 μg/ml

## C=CC(C)(C)c1cc(/C=C/C(=O)c2ccc(O)cc2)c(OC)cc1O [Licochalcone A, licochalcone A]
[1]
  MIC: 18 µg/mL (≈ 0.0532 mM)
[2]; macrophage + L. major, 10 μg/ml
  intracellular amastigotes, electron microscopy: Most of the intracellular amastigotes were now killed
[2]; 5 μg/ml
  ultrastructure of macrophage: No changes compared to the control culture
[2]; 10 μg/ml
  ultrastructure of macrophage: No changes compared to the control culture
[3]; 20 μg intralesional
  amastigotes findings on the impression smear, Footpad: + (parasite amastigotes from 5 fields of microscopical vision < 100)
  amastigotes findings on the impression smear, Liver: + (parasite amastigotes from 5 fields of microscopical vision < 100)
  amastigotes findings on the impression smear, Spleen: + (parasite amastigotes from 5 fields of microscopical vision < 100)
[3]; 20 μg intralesional once a day
  parasitic load of the footpad, 3H-thymidine uptake (mean): 243.5 ×10^3 cpm
  parasitic load of the liver, 3H-thymidine uptake (mean): 10.8 ×10^3 cpm
[3]; 50 μg i.p.
  amastigotes findings on the impression smear, Footpad: + (parasite amastigotes from 5 fields of microscopical vision < 100)
  amastigotes findings on the impression smear, Liver: −
  amastigotes findings on the impression smear, Spleen: −
[3]; 50 μg i.p. once a day
  parasitic load of the footpad, 3H-thymidine uptake (mean): 58.0 ×10^3 cpm
  parasitic load of the liver, 3H-thymidine uptake (mean): 11.7 ×10^3 cpm
[3]; 50 μg intralesional
  amastigotes findings on the impression smear, Footpad: + (parasite amastigotes from 5 fields of microscopical vision < 100)
  amastigotes findings on the impression smear, Liver: + (parasite amastigotes from 5 fields of microscopical vision < 100)
  amastigotes findings on the impression smear, Spleen: + (parasite amastigotes from 5 fields of microscopical vision < 100)
[3]; 50 μg intralesional once a day
  parasitic load of the footpad, 3H-thymidine uptake (mean): 282.6 ×10^3 cpm
  parasitic load of the liver, 3H-thymidine uptake (mean): 20.8 ×10^3 cpm
[3]; 100 μg i.p.
  amastigotes findings on the impression smear, Footpad: + (parasite amastigotes from 5 fields of microscopical vision < 100)
  amastigotes findings on the impression smear, Liver: −
  amastigotes findings on the impression smear, Spleen: −
[3]; 100 μg i.p. once a day
  parasitic load of the footpad, 3H-thymidine uptake (mean): 89.0 ×10^3 cpm
  parasitic load of the liver, 3H-thymidine uptake (mean): 12.8 ×10^3 cpm
[4]
  MIC: 4000 to 8000 µg/mL (≈ 11.8 to 23.6 mM)
[5]; [8]
  % of amast.: 91.6%
  % of infec. cells: 14.0%
  amast. per cell: 1.7
  proma. per cell: 0.1
  total amast.: 23.3 ×10^6
  total proma.: 2.0 ×10^6
[5]; [9]
  % of amast.: 88.2%
  % of infec. cells: 10.7%
  amast. per cell: 1.7
  proma. per cell: 0.2
  total amast.: 17.7 ×10^6
  total proma.: 2.0 ×10^6
[5]; 3 days after infection, 5 μg/ml
  % of infec. cells: 0%
[5]; 3 days after infection, 10 μg/ml
  % of infec. cells: 0%
[5]; [10]
  % of amast.: 100%
  % of infec. cells: 8.0%
  amast. per cell: 1.7
  proma. per cell: 0
  total amast.: 14 ×10^6
  total proma.: 0 ×10^6
[5]; [11]
  % of amast.: 100%
  % of infec. cells: 7.3%
  amast. per cell: 2.2
  proma. per cell: 0
  total amast.: 16 ×10^6
  total proma.: 0 ×10^6
[5]; 6 days after infection, 5 μg/ml
  % of infec. cells: 0%
[5]; 6 days after infection, 10 μg/ml
  % of infec. cells: 0%
[6]; 4 rats, one dose of 1000 mg per kg perorally
  deaths within one week: None of the animals died
[6]; rats
  LD50 peroral: > 1000 mg per kg
[7]; 0.5 μg/ml
  inhibition at 0.5 µg/mL: 39%
[7]; 1 μg/ml
  inhibition at 1 µg/mL: 69%
[7]; 5 μg/ml
  inhibition at 5 µg/mL: 98%
[7]; 10 μg/ml
  inhibition at 10 µg/mL: 98%
